In patent US20240299326A1, “METHODS AND COMPOSITIONS FOR TREATING CANCER” (Onconova Therapeutics, Inc., priority 2021, published 2024):
“Also recorded” adds a separate entry of the source.

How the values were obtained:
[1] = system: RDEB-associated locally advanced/metastatic squamous cell carcinoma (SCC); experiment: Phase 2 open-label single arm clinical study, tumor response (RECIST, MRI, clinical exam, histology); type: in vivo, patients
Procedure: The study had two primary endpoints. […] The second primary endpoint was to evaluate the safety and tolerability of rigosertib in the population. Secondary study endpoints included quality of life and a biomarker analysis performed on archival tissue from all patients. Patients were dosed for up to one year, with trial duration anticipated to be approximately two-and-a-half years.
Intravenous dosing: For continuous IV infusion as Rigosertib, sodium salt concentrate, 75 mg/mL, was formulated to contain 75 mg of Rigosertib sodium salt per mL (equivalent to 75 mg of Rigosertib sodium per mL) as a sterile solution in polyethylene glycol 400 (PEG 400) containing a small amount of sodium hydroxide for pH adjustment. Rigosertib.Na 75 mg/mL was packaged in single-use glass vials with Teflon-lined rubber stoppers containing 24 mL of drug product (1800 mg). Just prior to dosing, the Rigosertib concentrate (i.e. 1 glass vial, 24 mL) was diluted to a final volume of 500 ml in 0.9% sodium chloride for injection.
Efficacy Assessments: Overall response rate (ORR) was defined as the proportion of patients who achieved either a CR or a PR. Responses of complete remission (CR), partial remission (PR), mCR, SD, failure, and PD were determined by RECIST criteria. The number and percent of patients with CR, PR, mCR, SD, Failure or PD were summarized.
Response per RECIST criteria: Efficacy assessments included an initial tumor assessment at week 12 (±3 days) after first dose. Further tumor assessments were completed every 12 weeks (±3 days). Study evaluations were performed according to RECIST 1.1 criteria. High resolution CT with oral or IV contrast or contrast-enhanced MRI were used as imaging modalities for assessing radiographic tumor response. Screening/Baseline assessments were within 4 weeks of first dose of study drug. Brain MRI was used as an imaging method for evaluating CNS metastasis, and an assessment was required during screening/baseline and End of Therapy or as clinically indicated.
Target lesions: When more than one measurable lesion was present at baseline, all lesions up to a maximum of 5 lesions total (and a maximum of two lesions per site), representative of all involved sites, were investigated as target lesions and are recorded and measured at baseline. Target lesions were selected on the basis of size (lesions with the longest diameter) and were representative of all involved sites. A sum of the diameters (longest for non-nodal lesions, short axis for nodal lesions) for all target lesions were calculated and reported as the baseline sum diameters. If lymph nodes were included in the sum, only the short axis was added into the sum. The baseline sum diameters were used as reference to characterize any objective tumor regression in the measurable dimension of the disease. […]

RDEB SCC keratinocytes = experiment: Cell death of RDEB SCC keratinocytes after 48 hours exposure, crystal violet staining / phase contrast; type: cell-based
Procedure: (§1) Panel A. Cells were seeded at high density and exposed to Rigosertib or vehicle control for 48 hours after which cells were fixed and stained with crystal violet. Panel B. Phase contrast images of unfixed cells in culture after given treatment of either control (left) or Rigosertib (1 μM, right).

SCC RDEB16 keratinocytes = experiment: Tumor xenograft of SCC RDEB16 keratinocytes, tumor volume by calipers; type: in vivo, Balb/c SCID mice; conditions: subcutaneous inoculation; dosing after tumors reached 100 mm^3, administered 6 times; harvested day 35; FIG. 2
Procedure: SCC RDEB16 keratinocytes were inoculated subcutaneously to Balb/c SCID mice. After tumors reached 100 mm^3, vehicle control, Rigosertib or Compound 1 (ATP-competitive inhibitor) were administered 6 times and tumor volume was measured with calipers. Tumors were harvested and photographed at day 35.

[2] = Phase 2 open-label single arm clinical study, safety and tolerability; type: in vivo, patients; conditions: single RDEB patient, CIV infusions
Procedure: A phase 2, open-label single arm was conducted. The study was designed to assess the efficacy and safety of Rigosertib in patients with recessive dystrophic epidermolysis bullosa (RDEB)-associated locally advanced/metastatic squamous cell carcinoma (SCC).
In addition to the assessment of safety and tolerability, efficacy was measured by the overall response rate as assessed by RECIST. Patients were treated until RECIST progression criteria were met (i.e. 20% increase in tumor diameter or appearance of new malignant lesions) for 12 consecutive months or until an unacceptable toxicity or intolerance, or until remission.
The study had two primary endpoints. The first was to determine the anti-tumor activity of rigosertib in RDEB patients with advanced SCC who had failed prior standard of care through the overall response rate (ORR), defined as the proportion of patients who achieved either a complete response (CR) or a partial response (PR). The second primary endpoint was to evaluate the safety and tolerability of rigosertib in the population. Secondary study endpoints included quality of life and a biomarker analysis performed on archival tissue from all patients. Patients were dosed for up to one year, with trial duration anticipated to be approximately two-and-a-half years. […]

[3] = system: normal primary keratinocytes; experiment: Effect on normal primary keratinocytes after 48 hours exposure, crystal violet staining / phase contrast; type: cell-based; conditions: FIG. 1
Procedure: as §1

[4] = one RDEB patient, intravenous rigosertib, 12 week MRI and clinic visit

## COc1cc(OC)c(/C=C/S(=O)(=O)Cc2ccc(OC)c(NCC(=O)O)c2)c(OC)c1 [Rigosertib, (E)-2-(5-((2,4,6-trimethoxystyrylsulfonyl)methyl)-2-methoxyphenylamino)acetic acid]
[1]; RDEB patient, 17 treatment cycles
  metastatic disease after trial completion: without signs of metastatic disease
[1]; RDEB patient, 72 hr CIV infusions 1800 mg/24 h days 1-3, 17 treatment cycles
  remission of target lesions after trial completion: sustained clinical and histological remission of all target lesions
[1]; V25 (day 169-175)
  histology of biopsied target lesions (left hand, right elbow): no histological signs of malignancy
[1]; [4]
  resolution of squamous cell target lesions (left hand), clinical exam and MRI: complete resolution of two of three squamous cell target lesions
  third target lesion (right elbow): reduction in the third target lesion
RDEB SCC keratinocytes; 48 hours exposure, Rigosertib 1 μM in phase contrast images, FIG. 1
  cell death in RDEB SCC keratinocytes: induces cell death
RDEB SCC keratinocytes; preclinical models, RDEB SCC keratinocytes vs normal cells
  specificity / therapeutic window separating tumor and normal cells: largest therapeutic window separating tumor and normal cells
SCC RDEB16 keratinocytes
  tumor growth (tumor volume) of RDEB SCC keratinocytes in vivo: inhibits RDEB SCC keratinocyte grown in vivo
[2]
  observed adverse effects: CTCAE grade II irritative cystitis; also recorded: alopecia; also recorded: recurrent episode of bacteriaemia; also recorded: nausea; also recorded: increased lesional pain; also recorded: amenorrhea
  safety and tolerability: favorable
[3]
  effect on normal primary keratinocytes: without affecting normal primary keratinocytes
